Assay results published in patent US9957271B2, “Substituted bicyclic aza-heterocycles and analogues as sirtuin modulators” (GlaxoSmithKline, LLC, priority 2012, dated 2018).

Biological target: T1, SIRT1 (Homo sapiens, UniProt Q96EB6)
T1 sequence (Q96EB6 1-747): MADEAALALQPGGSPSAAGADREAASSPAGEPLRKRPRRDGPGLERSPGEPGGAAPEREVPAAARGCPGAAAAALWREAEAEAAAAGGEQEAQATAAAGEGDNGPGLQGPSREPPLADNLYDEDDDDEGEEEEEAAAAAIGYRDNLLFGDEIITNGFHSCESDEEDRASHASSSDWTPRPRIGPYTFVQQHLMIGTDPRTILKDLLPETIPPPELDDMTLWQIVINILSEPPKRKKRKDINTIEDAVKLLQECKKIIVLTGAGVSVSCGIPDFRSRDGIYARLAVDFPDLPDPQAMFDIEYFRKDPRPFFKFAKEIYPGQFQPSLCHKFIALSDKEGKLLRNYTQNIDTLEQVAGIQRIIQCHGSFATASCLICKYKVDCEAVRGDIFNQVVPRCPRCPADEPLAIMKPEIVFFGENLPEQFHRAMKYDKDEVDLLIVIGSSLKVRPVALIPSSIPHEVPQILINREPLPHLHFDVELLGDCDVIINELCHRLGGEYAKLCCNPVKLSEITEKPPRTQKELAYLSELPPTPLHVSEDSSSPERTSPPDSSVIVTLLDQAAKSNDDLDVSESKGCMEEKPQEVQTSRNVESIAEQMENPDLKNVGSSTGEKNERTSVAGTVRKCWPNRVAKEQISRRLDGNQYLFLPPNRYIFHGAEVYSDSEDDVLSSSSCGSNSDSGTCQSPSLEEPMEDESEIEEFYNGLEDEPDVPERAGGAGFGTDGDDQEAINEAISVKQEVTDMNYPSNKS
Test: Trp mass spectrometry assay of SIRT1 activity
Format: biochemical
Conditions: Trp assay; for Trp EC1.5 (μM): concentration giving 150% activation of SIRT1; for Emax: percent maximum fold activation, read-out: Trp % Fold Act
Description: Mass spectrometry based assays were used to identify modulators of SIRT1 activity. The TAMRA based assay utilized a peptide having 20 amino acid residues as follows: Ac-EE-K(biotin)-[…](Ac)NleSTEG-K(5TMR)-EE-NH2 (SEQ ID NO: 1), wherein K(Ac) is an acetylated lysine residue and Nle is a norleucine. The peptide was labeled with the fluorophore 5TMR (excitation 540 nm/emission 580 nm) at the C-terminus. The sequence of the peptide substrate was based on p53 with several modifications. In addition, the methionine residue naturally present in the sequence was replaced with the norleucine because the methionine may be susceptible to oxidation during synthesis and purification. The Trp based assay utilized a peptide having an amino acid residues as follows: Ac-R-H-K-K(Ac)-W-NH2 (SEQ ID NO: 2).
The Trp mass spectrometry assay was conducted as follows. 0.5 μM peptide substrate and 120 μM βNAD^+ were incubated with 10 nM SIRT1 for 25 minutes at 25° C. in a reaction buffer (50 mM HEPES pH 7.5, […], 1 mM DTT, 0.05% BSA). The SIRT1 protein was obtained by cloning the SirT1 gene into a T7-promoter containing vector, which was then expressed in BL21(DE3) bacterial cells and purified as described in further detail below. Test compound was added at varying concentrations to this reaction mixture and the resulting reactions were monitored. After the 25 minute incubation with SIRT1, 10 μL of 10% formic acid was added to stop the reaction. The resulting reactions were sealed and frozen for later mass spec analysis. The relative SIRT1 activity was then determined by measuring the amount of O-acetyl-ADP-ribose (OAADPR) formed (or, alternatively, the amount of deacetylated Trp peptide generated) by the NAD-dependent sirtuin deacetylation reaction in the presence of varying concentrations of the test compound versus control reactions lacking the test compound. The degree to which the test agent activated deacetylation by SIRT1 was expressed as EC1.5 (i.e., the concentration of compound required to increase SIRT1 activity by 50% over the control lacking test compound), and Percent Maximum Activation (i.e., the maximum activity relative to control (100%) obtained for the test compound).
A control for inhibition of sirtuin activity was conducted by adding 1 μL of 500 mM nicotinamide as a negative control at the start of the reaction (e.g., permits determination of maximum sirtuin inhibition). A control for activation of sirtuin activity was conducted using 10 nM of sirtuin protein, with 1 μL of DMSO in place of compound, to determine the amount of deacetylation of the substrate at a given time point within the linear range of the assay. This time point was the same as that used for test compounds and, within the linear range, the endpoint represents a change in velocity.
For the above assay, SIRT1 protein was expressed and purified as follows. The SirT1 gene was cloned into a T7-promoter containing vector and transformed into BL21(DE3). The protein was expressed by induction with 1 mM IPTG as an N-terminal His-tag fusion protein at 18° C. overnight and harvested at 30,000×g. Cells were lysed with lysozyme in lysis buffer (50 mM Tris-HCl, 2 mM Tris[2-carboxyethyl]phosphine (TCEP), 10 μM ZnCl2, 200 mM NaCl) and further treated with sonication for […] for complete lysis. The protein was purified over a Ni-NTA column (Amersham) and fractions containing pure protein were pooled, concentrated and run over a sizing column (Sephadex S200 26/60 global). The peak containing soluble protein was collected and run on an Ion-exchange column (MonoQ). Gradient elution (200 mM-500 mM NaCl) yielded pure protein. This protein was concentrated and dialyzed against dialysis buffer (20 mM Tris-HCl, 2 mM TCEP) overnight. The protein was aliquoted and frozen at −80° C. until further use.

Cc1nc2ccc(N3CC[C@H](N(C)C)C3)nn2c1C(=O)Nc1ccccn1 [Compound 867]
Trp EC1.5 (μM): B (EC1.5 1-25 μM) | Emax: ≥ 350%

CN(C)[C@H]1CCN(c2ccc3ncc(C(=O)Nc4cccnc4)n3n2)C1 [Compound 868]
Trp EC1.5 (μM): B (EC1.5 1-25 μM) | Emax: < 350%

CN(C)[C@H]1CCN(c2ccc3ncc(C(=O)Nc4ccncc4F)n3n2)C1 [Compound 869]
Trp EC1.5 (μM): B (EC1.5 1-25 μM) | Emax: < 350%

Cc1nc2ccc(N3CC[C@H](N(C)C)C3)nn2c1C(=O)Nc1ccncc1F [Compound 870]
Trp EC1.5 (μM): C (EC1.5>25 μM) | Emax: < 350%

Cc1nc2ccc(N3CC[C@H](N(C)C)C3)nn2c1C(=O)Nc1cnccn1 [Compound 871]
Trp EC1.5 (μM): B (EC1.5 1-25 μM) | Emax: < 350%

Cc1nc2ccc(N3CC[C@H](N(C)C)C3)nn2c1C(=O)Nc1ccc(F)cn1 [Compound 872]
Trp EC1.5 (μM): C (EC1.5>25 μM) | Emax: < 350%

CN(C)[C@H]1CCN(c2ccc3ncc(C(=O)Nc4cnccn4)n3n2)C1 [Compound 873]
Trp EC1.5 (μM): B (EC1.5 1-25 μM) | Emax: ≥ 350%

CN(C)[C@H]1CCN(c2ccc3ncc(C(=O)Nc4ccc(F)cn4)n3n2)C1 [Compound 874]
Trp EC1.5 (μM): A (EC1.5<1 μM) | Emax: < 350%

Cc1cc(NC(=O)c2cnc3ccc(-c4cccc(OC[C@H](O)CO)c4)nn23)ccn1 [Compound 875]
Trp EC1.5 (μM): C (EC1.5>25 μM) | Emax: < 350%

CN(C)c1cccc(NC(=O)c2cnc3ccc(-c4cccc(OC[C@H](O)CO)c4)nn23)n1 [Compound 876]
Trp EC1.5 (μM): A (EC1.5<1 μM) | Emax: ≥ 350%

Cc1nc2ccc(N3CC[C@H](N(C)C)C3)nn2c1C(=O)Nc1cccnc1 [Compound 877]
Trp EC1.5 (μM): B (EC1.5 1-25 μM) | Emax: < 350%

CN(C)c1ccnc(NC(=O)c2cnc3ccc(-c4cccc(OC[C@H](O)CO)c4)nn23)c1 [Compound 878]
Trp EC1.5 (μM): B (EC1.5 1-25 μM) | Emax: < 350%

CN(C)[C@H]1CCN(c2ccc3ncc(C(=O)Nc4cccnn4)n3n2)C1 [Compound 879]
Trp EC1.5 (μM): B (EC1.5 1-25 μM) | Emax: < 350%

Cc1nc2ccc(N3CC[C@H](N(C)C)C3)nn2c1C(=O)Nc1cccnn1 [Compound 880]
Trp EC1.5 (μM): B (EC1.5 1-25 μM) | Emax: < 350%

Cc1nc2ccc(N3CC[C@H](N(C)C)C3)nn2c1C(=O)Nc1ccncn1 [Compound 881]
Trp EC1.5 (μM): C (EC1.5>25 μM) | Emax: < 350%

CN(C)[C@H]1CCN(c2ccc3ncc(C(=O)Nc4ccncn4)n3n2)C1 [Compound 882]
Trp EC1.5 (μM): B (EC1.5 1-25 μM) | Emax: < 350%

O=C(Nc1ccncc1F)c1cnc2ccc(-c3cccc(OC[C@H](O)CO)c3)nn12 [Compound 883]
Trp EC1.5 (μM): A (EC1.5<1 μM) | Emax: < 350%

O=C(Nc1ccc(F)cn1)c1cnc2ccc(-c3cccc(OC[C@H](O)CO)c3)nn12 [Compound 884]
Trp EC1.5 (μM): B (EC1.5 1-25 μM) | Emax: < 350%

Cc1nc2ccc(N3CC[C@H](N(C)C)C3)nn2c1C(=O)Nc1ncccn1 [Compound 885]
Trp EC1.5 (μM): B (EC1.5 1-25 μM) | Emax: < 350%

CN(C)[C@H]1CCN(c2ccc3ncc(C(=O)Nc4ncccn4)n3n2)C1 [Compound 886]
Trp EC1.5 (μM): B (EC1.5 1-25 μM) | Emax: < 350%

O=C(Nc1cccnn1)c1cnc2ccc(-c3cccc(OC[C@H](O)CO)c3)nn12 [Compound 887]
Trp EC1.5 (μM): A (EC1.5<1 μM) | Emax: < 350%

O=C(Nc1cncnc1)c1cnc2ccc(N3CC[C@H](F)C3)nn12 [Compound 888]
Trp EC1.5 (μM): C (EC1.5>25 μM) | Emax: < 350%

Cc1cncc(NC(=O)c2cnc3ccc(N4CC[C@H](F)C4)nn23)c1 [Compound 889]
Trp EC1.5 (μM): B (EC1.5 1-25 μM) | Emax: < 350%

O=C(Nc1cncc(F)c1)c1cnc2ccc(N3CC[C@H](F)C3)nn12 [Compound 890]
Trp EC1.5 (μM): B (EC1.5 1-25 μM) | Emax: < 350%

Cn1ccc(NC(=O)c2cnc3ccc(N4CC[C@H](F)C4)nn23)n1 [Compound 891]
Trp EC1.5 (μM): B (EC1.5 1-25 μM) | Emax: ≥ 350%
